Measured values taken from ChEMBL document CHEMBL1201862, “PubChem BioAssay data set” (2004).
The source made the active and inactive calls.

How the values were obtained:
[1] = target: T1, Oxysterols receptor LXR-beta (Homo sapiens, UniProt P55055); format: functional, cell-based;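 further: agonist activity at LXR measured by a cell-based luminescence readout across a dose range, run as a counterscreen for daf-12 agonists; HEK293 cells with Gal4-LXR fusion and GAL4-driven luciferase reporter; potency for activation of Gal4-LXR reporter so compounds are agonists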
T1 sequence (P55055 whole entry): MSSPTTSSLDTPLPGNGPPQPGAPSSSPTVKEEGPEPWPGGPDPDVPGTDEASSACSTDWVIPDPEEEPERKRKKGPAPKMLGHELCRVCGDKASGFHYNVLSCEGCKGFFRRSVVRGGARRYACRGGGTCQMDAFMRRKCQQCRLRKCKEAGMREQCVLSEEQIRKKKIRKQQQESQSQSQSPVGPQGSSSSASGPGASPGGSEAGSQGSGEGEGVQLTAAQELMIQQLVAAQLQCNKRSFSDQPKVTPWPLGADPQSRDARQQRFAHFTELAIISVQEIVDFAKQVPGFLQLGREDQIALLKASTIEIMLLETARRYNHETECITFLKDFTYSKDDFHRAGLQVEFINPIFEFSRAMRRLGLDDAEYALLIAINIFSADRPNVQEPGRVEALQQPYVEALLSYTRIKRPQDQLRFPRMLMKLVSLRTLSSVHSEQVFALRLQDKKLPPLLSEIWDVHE

[2] = target: Melanin-concentrating hormone receptor 1 (Homo sapiens, UniProt Q99705); test: Fluorescence-based counterscreen for antagonists of the G-protein coupled receptor 7 (GPR7): cell-based high throughput dose response assay to identify antagonists of the melanin-concentrating hormone receptor 1 (MCHR1).; format: functional
[3] = target: Neuropeptides B/W receptor type 1 (Homo sapiens, UniProt P48145); test: Fluorescence-based dose response cell-based high throughput screening assay to identify antagonists of the G-protein coupled receptor 7 (GPR7). [Related pubchem assays: 1952 (Screening assay (GPR7 antagonists).), 1880 (Summary AID.)]; format: functional
[4] = target: T2, Eukaryotic translation initiation factor 2-alpha kinase 3 (Homo sapiens, UniProt Q9NZJ5); test: Dose response cell-based high-throughput screening assay to measure PERK inhibition. [Related pubchem assays: 1416 ]; format: functional
[5] = target: T2, Eukaryotic translation initiation factor 2-alpha kinase 3; test: Counterscreen assay for PERK inhibitors: Dose response cell-based high throughput screening assay to measure inhibition of PERK at 6 hours. [Related pubchem assays: 1522, 1416 ]; format: functional
[6] = target: T3, Alkaline phosphatase, tissue-nonspecific isozyme (Homo sapiens, UniProt P05186)
T3 sequence (P05186 whole entry): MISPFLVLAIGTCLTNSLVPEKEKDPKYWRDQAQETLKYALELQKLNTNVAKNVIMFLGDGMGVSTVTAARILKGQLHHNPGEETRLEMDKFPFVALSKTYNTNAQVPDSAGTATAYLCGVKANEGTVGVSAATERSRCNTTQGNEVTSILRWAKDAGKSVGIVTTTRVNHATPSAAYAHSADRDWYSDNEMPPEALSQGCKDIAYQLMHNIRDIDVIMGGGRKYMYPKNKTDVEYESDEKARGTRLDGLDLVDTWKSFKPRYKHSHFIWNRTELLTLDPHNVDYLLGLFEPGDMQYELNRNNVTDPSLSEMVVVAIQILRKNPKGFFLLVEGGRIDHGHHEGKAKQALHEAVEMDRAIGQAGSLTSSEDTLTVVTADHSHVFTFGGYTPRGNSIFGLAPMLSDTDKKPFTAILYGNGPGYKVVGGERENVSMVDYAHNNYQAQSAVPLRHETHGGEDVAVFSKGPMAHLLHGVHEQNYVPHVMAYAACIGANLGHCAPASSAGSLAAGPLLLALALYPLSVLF

[7] = target: Acyl-homoserine lactone acylase PvdQ (Pseudomonas aeruginosa (strain LESB58), UniProt Q9I194); test: PvdQ acylase enzyme activity blockers – biochemical, fluorescence, plate reader and imaging, cherry-picks, dose response (AID 493231)
[8] = target: G2/mitotic-specific cyclin-B1 (Homo sapiens, UniProt P14635); test: Counterscreen assay for inhibitors of Wee1 degradation: dose response cell-based assay to identify inhibitors of cyclin B degradation. [Related pubchem assays: 1410, 1321 ]; format: functional
Wee1-like protein kinase = Wee1-like protein kinase (Homo sapiens, UniProt P30291); test: Dose Response Cell-based Assay for Inhibitors of Wee1 Degradation. [Related pubchem assays: 1410, 1321 ]; format: functional
[9] = target: Peroxisome proliferator-activated receptor gamma (Homo sapiens, UniProt P37231); test: competitive ligand displacement at PPARg – biochemical, TR-FRET, LanthaScreen, PPARg partial agonist project, dose response (AID 504446)
Streptococcus [10] = test: Luminescence Microorganism-Based Dose Response Follow up to Identify Compounds Cytotoxic to Streptococcus. [Related pubchem assays: 1677 (Project Summary), 1915, 1914, 1902 (Retest at Dose), 1900 (Counter Screen), 1662 (Primary HTS)]; format: functional, organism-based
Streptokinase A = target: T4, Streptokinase A (Streptococcus pyogenes serotype M1, UniProt P10520); test: viability-normalized secreted streptokinase activity reduction – plasminogen activation absorbance, OD405, dose response (AID 1914); format: functional, Streptococcus pyogenes M1 GAS;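 further: secreted streptokinase activity via plasminogen activation per viability signal from cell pellet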
T4 sequence (P10520 whole entry): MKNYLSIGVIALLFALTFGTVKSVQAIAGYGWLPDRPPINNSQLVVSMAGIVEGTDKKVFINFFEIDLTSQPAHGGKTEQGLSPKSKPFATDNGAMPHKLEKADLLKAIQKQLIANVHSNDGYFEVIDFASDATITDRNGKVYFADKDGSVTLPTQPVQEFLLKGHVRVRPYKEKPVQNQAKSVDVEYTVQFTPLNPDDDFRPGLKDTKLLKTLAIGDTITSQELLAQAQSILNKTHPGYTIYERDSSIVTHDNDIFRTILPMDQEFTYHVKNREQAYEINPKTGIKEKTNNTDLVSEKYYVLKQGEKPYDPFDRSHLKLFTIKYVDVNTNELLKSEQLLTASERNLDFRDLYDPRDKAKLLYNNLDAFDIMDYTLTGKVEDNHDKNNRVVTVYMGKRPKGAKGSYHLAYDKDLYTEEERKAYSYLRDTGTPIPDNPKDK

[11] = system: Streptococcus sp. 'group A'; test: Streptococcus pyogenes SK(-)GAS viability under kanamycin – luminescence, BacTiterGlo, confirmation, counter-screen for streptokinase expression inhibitor project, dose response (AID 1900); format: functional, organism-based
Streptococcus [12] = test: GAS UMAA2166 growth inhibition – luminescence, BacTiterGlo, counter-screen for streptokinase expression inhibitor project, dose response (AID 1915); format: functional, organism-based;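 further: potency for reduction of bacterial viability or growth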
[13] = M. tuberculosis growth inhibition, HTS (AID 449762); format: functional
[14] = target: T5, Neuropeptide Y receptor type 2 (Homo sapiens, UniProt P49146); test: Fluorescence-based counterscreen for agonists of NPY-Y1: cell-based high-throughput dose response assay for agonists of NPY-Y2.; format: functional
T5 sequence (P49146 whole entry): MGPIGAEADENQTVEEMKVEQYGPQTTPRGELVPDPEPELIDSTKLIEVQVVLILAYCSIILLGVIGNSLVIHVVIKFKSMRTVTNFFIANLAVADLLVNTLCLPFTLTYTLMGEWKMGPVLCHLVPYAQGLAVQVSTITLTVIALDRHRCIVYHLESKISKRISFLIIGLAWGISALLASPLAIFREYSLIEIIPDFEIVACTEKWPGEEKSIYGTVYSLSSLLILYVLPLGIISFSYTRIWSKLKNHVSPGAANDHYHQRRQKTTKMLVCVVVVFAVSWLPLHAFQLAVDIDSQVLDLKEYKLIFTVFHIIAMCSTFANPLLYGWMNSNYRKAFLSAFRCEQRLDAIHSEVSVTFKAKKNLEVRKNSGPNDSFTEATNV

[15] = target: T6, Neuropeptide Y receptor type 1 (Homo sapiens, UniProt P25929); test: Fluorescence-based dose response cell-based high-throughput screening assay for agonists of NPY-Y1. [Related pubchem assays: 1697 (Screening assay (NPY-Y1 agonists).), 1359 (Screening assay (NPY-Y2 potentiators or agonists).), 1304 (Screening assay (NPY-Y1 potentiators or agonists).), 1704 (Screening assay (CNGC inhibitors).), 1791 (Summary AID.)]; format: functional
T6 sequence (P25929 whole entry): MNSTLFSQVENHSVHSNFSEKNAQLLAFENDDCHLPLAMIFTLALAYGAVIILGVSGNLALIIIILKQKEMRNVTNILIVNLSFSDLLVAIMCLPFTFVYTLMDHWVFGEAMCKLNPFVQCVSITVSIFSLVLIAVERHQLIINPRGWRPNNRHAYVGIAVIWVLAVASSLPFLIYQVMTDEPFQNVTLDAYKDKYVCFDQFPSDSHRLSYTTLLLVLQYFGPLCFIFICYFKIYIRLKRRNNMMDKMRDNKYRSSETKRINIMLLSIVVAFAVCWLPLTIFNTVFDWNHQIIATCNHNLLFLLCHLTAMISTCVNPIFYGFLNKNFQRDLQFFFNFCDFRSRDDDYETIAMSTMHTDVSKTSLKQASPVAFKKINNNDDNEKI

Estrogen receptor = target: T7, Estrogen receptor (Homo sapiens, UniProt P03372);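 further: potency for inhibiting coactivator peptide recruitment to the receptor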
T7 sequence (P03372 whole entry): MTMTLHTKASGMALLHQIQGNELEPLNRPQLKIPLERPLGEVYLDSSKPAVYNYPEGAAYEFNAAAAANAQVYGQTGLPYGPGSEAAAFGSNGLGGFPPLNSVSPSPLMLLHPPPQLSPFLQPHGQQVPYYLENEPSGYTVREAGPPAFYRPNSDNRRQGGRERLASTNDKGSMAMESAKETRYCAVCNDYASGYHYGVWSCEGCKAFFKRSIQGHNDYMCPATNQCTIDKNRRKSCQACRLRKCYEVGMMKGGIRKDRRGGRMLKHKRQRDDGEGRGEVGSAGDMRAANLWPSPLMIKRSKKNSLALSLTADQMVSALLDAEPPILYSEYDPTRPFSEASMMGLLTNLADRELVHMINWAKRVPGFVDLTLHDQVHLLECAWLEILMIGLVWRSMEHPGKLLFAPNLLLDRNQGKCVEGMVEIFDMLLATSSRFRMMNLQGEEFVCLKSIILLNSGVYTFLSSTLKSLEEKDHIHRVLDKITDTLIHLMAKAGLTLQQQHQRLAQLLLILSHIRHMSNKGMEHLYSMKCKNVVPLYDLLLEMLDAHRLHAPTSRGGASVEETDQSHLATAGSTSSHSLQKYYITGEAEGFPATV

HEK293 = test: Fluorescence-based counterscreen for potentiators or agonists of NPY-Y1: cell-based high-throughput dose response assay for inhibitors of cyclic nucleotide gated ion channel (CNGC) activity. In this assay, the parental HEK293 cell line transfected with a cyclic-nucleotide gated ion channel (CNGC)-based cAMP sensor is used to measure inhibition of isoproterenol-induced CNGC …; format: functional; details: Homo sapiens
[16] = target: Lysosomal acid glucosylceramidase (Homo sapiens, UniProt P04062); test: Dose response cell-based high throughput screening assay to identify enhancers of beta-glucosidase activity. [Related pubchem assays: 784 ]; format: functional
Cytochrome P450 3A4 = Cytochrome P450 3A4 (Homo sapiens, UniProt P08684); details: Potency;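 further: confirmatory qHTS run detecting inhibitors and substrates of CYP3A4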
Cytochrome P450 2D6 = Cytochrome P450 2D6 (Homo sapiens, UniProt P10635); test: qHTS Assay for Inhibitors and Substrates of Cytochrome P450 2D6. [Related pubchem assays: 410 ]; format: ADME; details: read-out: Potency
Cytochrome P450 2D6, sequence (P10635 whole entry): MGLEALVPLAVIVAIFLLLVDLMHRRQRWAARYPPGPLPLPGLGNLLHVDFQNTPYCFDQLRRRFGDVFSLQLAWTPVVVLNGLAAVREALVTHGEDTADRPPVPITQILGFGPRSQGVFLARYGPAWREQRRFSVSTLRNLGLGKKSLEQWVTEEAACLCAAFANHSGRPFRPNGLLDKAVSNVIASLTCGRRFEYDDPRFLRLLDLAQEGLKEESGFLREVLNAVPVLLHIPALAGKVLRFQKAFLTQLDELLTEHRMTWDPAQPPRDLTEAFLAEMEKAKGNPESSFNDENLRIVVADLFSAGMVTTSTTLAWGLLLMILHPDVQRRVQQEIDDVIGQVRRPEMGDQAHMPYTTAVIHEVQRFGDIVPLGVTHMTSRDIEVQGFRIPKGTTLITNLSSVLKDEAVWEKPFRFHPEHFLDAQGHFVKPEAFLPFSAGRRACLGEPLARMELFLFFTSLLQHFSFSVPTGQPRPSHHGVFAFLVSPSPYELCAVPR

T2 sequence (Q9NZJ5 whole entry): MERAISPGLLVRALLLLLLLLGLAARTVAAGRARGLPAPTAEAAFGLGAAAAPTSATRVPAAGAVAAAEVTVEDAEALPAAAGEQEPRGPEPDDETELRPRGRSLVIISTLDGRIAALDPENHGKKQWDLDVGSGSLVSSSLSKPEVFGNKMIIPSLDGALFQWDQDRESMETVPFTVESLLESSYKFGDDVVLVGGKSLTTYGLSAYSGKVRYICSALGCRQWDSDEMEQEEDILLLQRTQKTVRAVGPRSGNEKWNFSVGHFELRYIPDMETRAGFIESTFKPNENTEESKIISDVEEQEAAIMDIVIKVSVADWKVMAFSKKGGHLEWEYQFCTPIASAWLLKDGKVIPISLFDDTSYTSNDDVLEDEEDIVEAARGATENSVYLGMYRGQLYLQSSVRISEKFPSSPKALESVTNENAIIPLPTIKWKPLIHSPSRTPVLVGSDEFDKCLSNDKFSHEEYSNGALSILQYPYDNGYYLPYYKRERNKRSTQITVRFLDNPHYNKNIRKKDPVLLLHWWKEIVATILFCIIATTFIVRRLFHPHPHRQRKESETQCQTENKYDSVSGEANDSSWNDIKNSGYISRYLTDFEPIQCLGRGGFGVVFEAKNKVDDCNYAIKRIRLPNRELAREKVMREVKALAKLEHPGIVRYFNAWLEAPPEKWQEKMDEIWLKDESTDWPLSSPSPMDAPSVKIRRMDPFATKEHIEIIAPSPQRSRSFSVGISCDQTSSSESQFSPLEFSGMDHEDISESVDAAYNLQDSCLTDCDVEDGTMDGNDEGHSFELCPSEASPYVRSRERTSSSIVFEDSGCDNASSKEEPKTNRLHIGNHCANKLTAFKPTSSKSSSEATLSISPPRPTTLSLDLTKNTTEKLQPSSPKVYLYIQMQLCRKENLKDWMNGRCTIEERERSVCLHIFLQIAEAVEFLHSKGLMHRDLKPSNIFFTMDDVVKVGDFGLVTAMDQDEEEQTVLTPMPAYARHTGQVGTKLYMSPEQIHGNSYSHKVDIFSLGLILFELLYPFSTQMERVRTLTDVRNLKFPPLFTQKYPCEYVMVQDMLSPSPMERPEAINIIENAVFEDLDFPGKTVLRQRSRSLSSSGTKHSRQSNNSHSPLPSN
Cytochrome P450 3A4, sequence (P08684 whole entry): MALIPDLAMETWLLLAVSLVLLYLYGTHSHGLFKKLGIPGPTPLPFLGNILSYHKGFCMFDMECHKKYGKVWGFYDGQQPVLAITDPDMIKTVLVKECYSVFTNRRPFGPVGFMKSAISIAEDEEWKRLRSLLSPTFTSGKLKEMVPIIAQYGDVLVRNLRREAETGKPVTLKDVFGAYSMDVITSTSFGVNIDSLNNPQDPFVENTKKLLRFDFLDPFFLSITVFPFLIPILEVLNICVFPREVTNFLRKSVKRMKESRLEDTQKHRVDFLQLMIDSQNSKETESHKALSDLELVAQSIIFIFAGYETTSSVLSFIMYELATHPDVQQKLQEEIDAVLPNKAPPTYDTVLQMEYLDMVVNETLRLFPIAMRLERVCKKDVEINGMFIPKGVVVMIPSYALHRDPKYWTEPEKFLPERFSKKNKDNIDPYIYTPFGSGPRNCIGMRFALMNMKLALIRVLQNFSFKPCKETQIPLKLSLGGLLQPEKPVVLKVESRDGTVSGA
G2/mitotic-specific cyclin-B1, sequence (P14635 whole entry): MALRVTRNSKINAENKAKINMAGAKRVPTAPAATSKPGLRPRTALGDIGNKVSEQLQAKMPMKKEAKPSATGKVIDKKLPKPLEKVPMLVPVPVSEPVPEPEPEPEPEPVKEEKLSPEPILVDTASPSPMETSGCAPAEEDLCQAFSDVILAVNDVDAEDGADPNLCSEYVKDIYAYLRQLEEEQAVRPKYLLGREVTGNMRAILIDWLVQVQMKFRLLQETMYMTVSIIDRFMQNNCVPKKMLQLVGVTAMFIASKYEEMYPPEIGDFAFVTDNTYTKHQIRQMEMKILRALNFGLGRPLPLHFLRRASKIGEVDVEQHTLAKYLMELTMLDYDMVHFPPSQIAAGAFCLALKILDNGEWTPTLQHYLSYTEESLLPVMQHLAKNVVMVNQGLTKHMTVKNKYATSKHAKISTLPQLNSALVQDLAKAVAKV
Melanin-concentrating hormone receptor 1, sequence (Q99705 whole entry): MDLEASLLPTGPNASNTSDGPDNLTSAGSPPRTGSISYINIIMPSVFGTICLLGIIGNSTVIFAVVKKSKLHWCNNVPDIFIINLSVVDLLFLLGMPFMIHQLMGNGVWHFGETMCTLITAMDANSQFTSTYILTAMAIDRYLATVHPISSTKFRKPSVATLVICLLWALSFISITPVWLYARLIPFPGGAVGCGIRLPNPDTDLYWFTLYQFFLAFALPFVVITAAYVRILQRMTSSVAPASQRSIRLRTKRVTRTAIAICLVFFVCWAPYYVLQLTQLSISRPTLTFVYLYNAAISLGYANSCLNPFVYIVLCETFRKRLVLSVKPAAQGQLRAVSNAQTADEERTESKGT
Peroxisome proliferator-activated receptor gamma, sequence (P37231 whole entry): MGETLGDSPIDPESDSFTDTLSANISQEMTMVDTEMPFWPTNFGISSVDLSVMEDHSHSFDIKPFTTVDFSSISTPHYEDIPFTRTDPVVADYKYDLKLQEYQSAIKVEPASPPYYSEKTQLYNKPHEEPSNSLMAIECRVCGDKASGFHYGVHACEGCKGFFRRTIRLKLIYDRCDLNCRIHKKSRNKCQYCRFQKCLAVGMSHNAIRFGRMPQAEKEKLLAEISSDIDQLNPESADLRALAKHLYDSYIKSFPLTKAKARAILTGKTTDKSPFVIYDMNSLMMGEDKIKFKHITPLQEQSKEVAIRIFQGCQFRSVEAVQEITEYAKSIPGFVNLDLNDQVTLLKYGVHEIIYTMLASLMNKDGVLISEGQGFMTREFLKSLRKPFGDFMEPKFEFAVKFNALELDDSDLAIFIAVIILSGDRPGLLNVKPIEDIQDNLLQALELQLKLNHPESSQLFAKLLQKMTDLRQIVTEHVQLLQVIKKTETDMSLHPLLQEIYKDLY
Neuropeptides B/W receptor type 1, sequence (P48145 whole entry): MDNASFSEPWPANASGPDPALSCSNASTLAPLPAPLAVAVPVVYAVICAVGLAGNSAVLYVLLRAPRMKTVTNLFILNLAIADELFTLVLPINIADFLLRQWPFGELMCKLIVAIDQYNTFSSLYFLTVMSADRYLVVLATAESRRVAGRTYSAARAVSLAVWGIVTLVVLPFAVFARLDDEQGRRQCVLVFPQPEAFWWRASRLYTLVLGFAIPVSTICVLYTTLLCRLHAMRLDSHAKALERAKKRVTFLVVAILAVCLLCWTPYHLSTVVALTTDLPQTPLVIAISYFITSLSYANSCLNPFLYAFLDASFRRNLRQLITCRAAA
Acyl-homoserine lactone acylase PvdQ, sequence (Q9I194 24-193 limits assumed): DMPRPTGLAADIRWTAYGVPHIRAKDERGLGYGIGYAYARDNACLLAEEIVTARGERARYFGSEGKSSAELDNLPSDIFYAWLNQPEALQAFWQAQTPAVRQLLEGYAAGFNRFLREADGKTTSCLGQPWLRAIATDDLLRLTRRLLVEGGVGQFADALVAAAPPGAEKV
Acyl-homoserine lactone acylase PvdQ, sequence (Q9I194 217-762 limits assumed): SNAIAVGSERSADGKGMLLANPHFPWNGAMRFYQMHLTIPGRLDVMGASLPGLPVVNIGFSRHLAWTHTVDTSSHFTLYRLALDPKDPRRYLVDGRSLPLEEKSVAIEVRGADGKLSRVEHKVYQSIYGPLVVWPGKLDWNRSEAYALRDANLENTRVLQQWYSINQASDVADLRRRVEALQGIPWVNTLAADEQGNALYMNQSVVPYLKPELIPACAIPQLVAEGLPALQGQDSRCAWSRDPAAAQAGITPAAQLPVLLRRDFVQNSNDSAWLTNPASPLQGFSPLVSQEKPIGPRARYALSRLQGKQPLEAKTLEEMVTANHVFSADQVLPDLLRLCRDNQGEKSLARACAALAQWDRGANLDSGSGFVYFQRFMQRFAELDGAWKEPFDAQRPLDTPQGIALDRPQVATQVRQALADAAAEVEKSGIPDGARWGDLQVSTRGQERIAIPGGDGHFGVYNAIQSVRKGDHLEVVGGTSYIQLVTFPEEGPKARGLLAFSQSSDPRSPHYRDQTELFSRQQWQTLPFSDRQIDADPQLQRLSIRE
Lysosomal acid glucosylceramidase, sequence (P04062 whole entry): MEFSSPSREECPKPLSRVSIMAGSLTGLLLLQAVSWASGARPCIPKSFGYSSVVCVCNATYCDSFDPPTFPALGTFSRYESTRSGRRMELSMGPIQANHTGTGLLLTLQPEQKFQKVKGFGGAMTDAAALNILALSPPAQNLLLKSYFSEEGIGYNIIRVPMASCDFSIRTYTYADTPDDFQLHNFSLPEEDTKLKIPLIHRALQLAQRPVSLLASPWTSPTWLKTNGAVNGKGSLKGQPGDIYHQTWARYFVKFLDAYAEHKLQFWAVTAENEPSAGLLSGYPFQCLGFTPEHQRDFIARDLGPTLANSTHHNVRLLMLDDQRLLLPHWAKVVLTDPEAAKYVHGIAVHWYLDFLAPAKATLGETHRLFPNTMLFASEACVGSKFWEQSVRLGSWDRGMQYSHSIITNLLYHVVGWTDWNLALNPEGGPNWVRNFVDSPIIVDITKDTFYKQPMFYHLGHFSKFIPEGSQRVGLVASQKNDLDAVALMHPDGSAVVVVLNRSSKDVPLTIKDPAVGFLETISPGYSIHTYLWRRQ

## CS(=O)(=O)c1ccc2nc(NC(=O)Nc3ccccc3F)sc2c1
[1]
  EC50: > 67.5 µM (inactive)
[2]
  IC50: > 43.8 µM (not active)
[3]
  IC50: > 43.8 µM (not active)

## CCCCOC(=O)C1C2C=C[C@]3(CN(CCCOC)C(=O)[C@H]13)O2 (some centres not stated)
[4]
  EC50: > 55.7 µM (not active)
[5]
  EC50: > 55.7 µM (not active)

## CCCCNC(=O)CSc1nc2cc3c(cc2c(=O)n1CCC(=O)NCCc1ccc(OC)c(OC)c1)OCO3
[6]
  EC50: > 100 µM (not active)

## O=[N+]([O-])c1ccc(N2CCSCC2)cc1
[7]
  AC50: > 100 µM (inactive)

## COc1ccc(Nc2oc(-c3ccc(OC)cc3)nc2C#N)cc1
[8]
  EC50: > 49.7 µM (not active)
Wee1-like protein kinase
  EC50: > 49.7 µM (not active)

## O=C(O)CCN1C(=O)/C(=C/c2ccccc2Cl)SC1=S
[9]
  IC50: 2 µM (active)

## CCOc1ccc(Cl)cc1S(=O)(=O)n1cnc2cc(C)c(C)cc21
Streptococcus [10]
  EC50: > 500 µM (not active)
Streptokinase A
  EC50: 7.31 µM (active)
[11]
  EC50: 23.8 µM (active)
Streptococcus [12]
  EC50: > 150 µM (not active)

## CCn1c(SCC(=O)Nc2ccc3c(c2)oc2ccccc23)nnc1-c1ccc(N)cc1
[13]
  IC50: > 100 µM (active)
[14]
  EC50: 7.96 µM (active)
[15]
  EC50: 7.16 µM (active)
Estrogen receptor
  IC50: 11.7 µM (active)
HEK293
  IC50: 2.88 µM (active)

## O=S(=O)(NCc1csc(-c2cccnc2)n1)c1ccc2c(c1)OCCO2
[16]
  EC50: > 50 µM (not active)

## COc1cccc2[nH]c(-c3ccccn3)nc12
Cytochrome P450 3A4
  AC50: 3.98 µM (inconclusive)
Cytochrome P450 2D6
  AC50: 1.58 µM (inconclusive)
